Measured values reported in patent US20260038304A1, “METHOD AND SYSTEM FOR DETERMINING EFFICACY OF TREATMENT BY A PRE[…]” (priority 2023, published 2026).
Counter-ions that a name gives are not always drawn.

Experiments:
Format in all cases: in vivo
larval zebrafish [1] = assay: Wide-field behavioral tracking of spontaneous exploration and visually driven swimming after drug bath pretreatment; details: for effects of pretreatment on swim patterns: fluoxetine 1 μM to 10 μM, fluvoxamine 2.5 μM to 25 μM, 24 hours incubation; for swim patterns and tail motions during visually driven behaviors: fluoxetine- and fluvoxamine-treated fish vs control, FIG. 3K; for spontaneous swimming distance: unstressed fish, ketamine 30 μM bath 30 minutes, fluoxetine 4.6 μM bath 24 hours
Text: Reference is now made to FIG. 1A, which is a schematic diagram depicting an experimental setup, which may be used for evaluating behavior of an animal, according to some embodiments. […] This setup tracks the precise body kinematics of a single fish in an environment that is large (e.g., 90 mm) compared to the length of larval zebrafish (˜4 mm) at a high-resolution (e.g., higher than 1100×1100 pixels) and high-speed (e.g., 290 Hz). Data analysis pipelines further processed the images to identify the fish loci and body postures by using a deep neural network.
Different swim episodes can be visually separated in the depicted trajectories. Fish behavior was recorded at infrared wavelengths for 15 minutes while visual gratings stopped for 10 seconds (spontaneous swimming) and moved for 10 seconds (visually driven behavior) in cycles.
The inventors have used a custom-built zebrafish tracking system consisting of a high-speed camera, a macro lens and associated locking sleeve, an infrared filter for the lens, 880 nm LED illumination, a 100 mm×120 mm cold mirror, and a compact projector.
The inventors have tested the behavior of AB fish at the age of 5 Days Post Fertilization (DPF) on a chemical watch glass (125 mm) whose bottom surface was manually coated with a white spray. The inventors have imaged an area that spanned 90 mm (corresponding to 1100-1200 pixels) for each dimension with a resolution of […] per pixel at 290 Hz. […] Behavioral data presented in this study were acquired using at least three batches, as depicted in FIGS. 1, 2, 3, 4, 1SD, 2H, 2I, 2J, 3L, 4S, for at least two batches (FIG. 3J).
Until 5 DPF, both control and drug-exposed embryos were reared in 90-mm Petri dishes and maintained in a light-cycled incubator at 28.0° C. Media was changed every other day and no food was given before behavioral experiments. All behavioral experiments in this study were performed in E3 medium after washing out pretreated drugs.
Psilocybin solution (Sigma, P-097) was purchased as a stock solution concentration of 1.0 mg/mL in acetonitrile:water (1:1), ampule of 1 mL (3.52 mM). Stock solutions were stored at −80° C. for long-term storage, and in-use aliquots were stored at −20° C. Aliquots were thawed and vortexed immediately before use. Psilocybin was administered by incubating the fish in the psilocybin solution in 6-well plates. Desired concentrations of psilocybin were achieved by adding the stock solution to the E3 medium in which the fish swim. Concentrations ranging from 1 μM to 50 μM were tested in order to optimize the dosage.
The inventors determined that a dose of 2.5 μM for 4 h had the largest effect on spontaneous swimming compared to controls (refer to FIGS. 3E and 3J). Following the 4-hour exposure, fish were double washed in E3 medium, and remained in E3 medium until their behavior was examined. Behaviors were recorded for 15 minutes per fish.
Fluoxetine hydrochloride (Sigma, F918) was prepared as a 1 mg/ml (2.9 mM) stock solution in a conditioned E3 medium for zebrafish embryos. Fluvoxamine (Sigma, F2802) was prepared as a 10 mg/ml (23 mM) stock solution in a conditioned E3 medium. Desired Fluoxetine and Fluvoxamine concentrations were achieved by diluting the stock solution with conditioned E3 medium and storing the aliquots at −20° C. At 5 DPF, the fish were incubated as follows: Fluoxetine and Fluvoxamine were administered by incubating the fish in the solutions in 6-well plates. Desired concentrations of the two types of SSRIs were achieved by adding the stock solutions to the E3 medium in which the fish swim. Concentrations ranging from 1 μM to 10 μM for Fluoxetine and 2.5 μM to 25 μM for Fluvoxamine were tested in order to optimize the dosage. After 24 hours of incubation the fish, after being triple washed, were transferred to a new Petri dish, similar to the one they dwelled in before, containing only E3 medium. Behaviors were recorded at 6 DPF for 15 minutes per fish. […]

larval zebrafish [2] = assay: Acute cold stress exposure (28° C. to 18° C., 5 minutes) after drug pretreatment, swim pattern analysis; details: for stress-induced increase in swimming distance: cold shock, fluoxetine 4.6 μM 24 hours before; for stress-induced shift along the ICA2 (IC2) axis, turning/escape behavior: psilocybin 2.5 μM, ketamine 30 μM, fluoxetine 4.6 μM
Text: As known in the art, acute administration of psilocybin has anxiolytic effects in humans. The inventors have thus tested whether acute stress exposure causes changes in fish's swim patterns in our setup and whether psilocybin can prevent such stress-induced behavioral changes. Various environmental stressors have been tested in larval zebrafish that trigger cortisol increase, including hypertonic water, acids, mechanical disturbance, social isolation, and heating or cooling shock.
As shown in FIG. 4I-E, the inventors also tested the effect of hypertonic stress for comparison.
The behavioral effects of other antidepressants was investigated and compared with those of psilocybin. Initially, the effect of ketamine was tested. Ketamine is a fast-acting antidepressant that can also suppress stress-induced behavioral changes in zebrafish. Sub-anesthetic concentration (30 μM) were used and bath application were performed for 30 minutes before the cold shock (FIG. 5A).
The effect of fluoxetine was also tested in the cold shock paradigm, using a concentration of 4.6 μM from previous zebrafish studies, and the effect of bath application was examined for 24 hours before the cold shock (FIG. 5D). […] However, fluoxetine had mixed effects on body kinematics after stress exposure. […] These mixed effects may be due to the induction of distorted swim patterns by fluoxetine that were observed (FIG. 5F, FIG. S3C) but also may reflect its lack of acute anxiolytic effects in humans.
The inventors classified the effects of psilocybin, ketamine and fluoxetine based on two behavioral measures: changes in swimming distances (FIG. 5G) and the ICA analysis of body kinematics (FIG. 5H). In the first type of classification (FIG. 5G), the action of tested drugs was classified based solely on swimming distances. […] Anxiolytic effects were calculated based on how much the drugs could revert the increase of swimming distance induced by stress exposure. In the second type of classification (FIG. 5H), two dimensions identified by the ICA analysis of body kinematics were used. […] Anxiolytic effects were calculated based on how much the drugs could revert the changes along the IC2 axis induced by stress exposure.
Just as osmotic changes to the water cause stress to the fish, changes in water temperature are also known to induce stress. Zebrafish's optimal environment is approximately 28° C., and so it has been shown that a short exposure of 5 minutes to 18° C. leads to increased cortisol levels and anxiety-like behaviors in larval zebrafish. Thus, the inventors utilized this established stress paradigm and exposed the fish to 18° C. E3 medium for 5 minutes. The inventors subsequently returned the fish to 28° C. E3 for a 5-minute recovery before testing (FIG. 4A). 18° C. E3 was achieved by mixing 4° C. E3 with 28° C. E3. Over the course of the 5-minute cold stimulus, the water temperature on average ranged from 18° C. to 20° C. The recovery in 28° C. E3 was done in an incubator, thus the temperature remained stable. Note that these procedures involve multiple occasions of transferring fish and replacing liquid around the fish, which themselves cause stress response due to mechanical disturbances. The effect of such procedural stress was present as the shifts of behavioral states along the IC2 axis in the data presented in FIGS. 4 and S4 compared to other datasets.
(§1) For Independent Component Analysis (ICA) (FIGS. 2D, 3G, 4D, 4K and 4L), The inventors identified ICA weights and normalization factors in the dataset of 14,694 swimming episodes from N=22 fish for the small arena and N=20 fish for the large arena (FIG. 1) by using FastICA function in scikit-learn package (https://scikit-learn.org). The inventors subsequently applied the same ICA weights and normalization factors to other datasets. […]

larval zebrafish [3] = assay: Ketanserin bath application with or without psilocybin, independent component analysis of swim patterns; details: Ketanserin 11.25 μM for 5 hours
Procedure: The right panel of FIG. 4M depicts latent feature (e.g., independent component) analysis of swim patterns after the sham treatment, Ketanserin exposure and psilocybin pretreatment before Ketanserin exposure;
Ketanserin has acute anxiogenic effects in adult zebrafish and rodents.
For Ketanserin experiments (FIG. 4M), the inventors performed a bath application of Ketanserin (11.25 μM) for 5 hours before behavioral tests. Psilocybin (2.5 μM) was added to the solution 1 hour after the start of Ketanserin treatment for a total duration of 4 hours before behavioral tests. Ketanserin (Sigma, S006) was prepared as a 0.5 mg/mL stock solution in E3 medium. Stock solutions were stored at −80° C. for long-term storage, and in-use aliquots were stored at −20° C. The desired concentration of Ketanserin was achieved by adding the stock solution to the E3 medium in which the fish swim.
as §1

[4] = cold stress, classification of psilocybin, ketamine and fluoxetine

| Structure (SMILES) | effects of pretreatment on swim patterns (larval zebrafish [1]) | swim patterns and tail motions during visually driven behaviors (larval zebrafish [1]) | spontaneous swimming distance (larval zebrafish [1]) | stress-induced increase in swimming distance (larval zebrafish [2]; ketamine 30 μM 30 minutes) | reversal of the stress-induced increases in swim distances (FIG. 5G) (larval zebrafish [2]; [4]) | stress-induced shift along the ICA2 (IC2) axis, turning/escape behavior (larval zebrafish [2]; cold stress) | other results |
| --- | --- | --- | --- | --- | --- | --- | --- |
| CN(C)CCc1c[nH]c2cccc(OP(=O)(O)O)c12 [psilocybin, Psilocybin] | – | – | – | – | – | – | most effective concentration for enhancing spontaneous exploration (larval zebrafish [1]; tested 1 μM to 50 μM, 30 minutes to 24 hours, optimal duration 4 h): 2.5 µM |
| COCCCC/C(=N\OCCN)c1ccc(C(F)(F)F)cc1 [fluvoxamine, Fluvoxamine] | suppressive effects | decrease amplitude of tail motions | – | – | – | – | – |
| CNCCC(Oc1ccc(C(F)(F)F)cc1)c1ccccc1 (centres unmarked) [fluoxetine, Fluoxetine hydrochloride] | suppressive effects | noticeable distortions in the swim patterns and low-frequency tail motions | did not increase | reversed | only occurred with ketamine and fluoxetine | partially reversed and partially exacerbated | stimulatory/suppressive effects on basal behavior (larval zebrafish [1]; unstressed fish vs control, swimming distance and IC1 axis classifications consistent (FIG. 5G, 5H)): suppressive |
| CNC1(c2ccccc2Cl)CCCCC1=O (centres unmarked) [ketamine] | – | – | did not increase | reversed | only occurred with ketamine and fluoxetine | significantly reversed | reversal of the stress-induced changes in body kinematics (FIG. 5H) (larval zebrafish [2]; cold stress, IC2 axis, classification of psilocybin, ketamine and fluoxetine): only occurred with ketamine and psilocybin; stress-induced changes in swim patterns (zig-zag vs straight) during visually driven swimming (larval zebrafish [2]; cold stress, psilocybin 2.5 μM pretreatment, ketamine 30 μM 30 minutes): prevented the emergence of zig-zag swim patterns after cold shock and recovered straight swim patterns |
| O=C(c1ccc(F)cc1)C1CCN(CCn2c(=O)[nH]c3ccccc3c2=O)CC1 [Ketanserin] | – | – | – | – | – | – | shift of behavioral states by bath application (larval zebrafish [3]): shifted behavioral states similarly to both cold and hypertonic stressors |
